Source: US20240018133A1, “MODULATORS OF THE INTEGRATED STRESS PATHWAY” (Calico Life Sciences LLC, priority 2019, published 2024)

Tested on: ATF4 luciferase reporter (human full-length ATF4 5'-UTR fused to firefly luciferase) in HEK293T cells
Assay: ATF4-Luc assay (in vitro model of VWMD): HEK293T cells carrying ATF4 luciferase reporter, tunicamycin-treated
Format: cell-based
Settings: Homo sapiens, HEK-293T, 1 μg/mL tunicamycin, 7 hours, One Glo luminescence
Procedure, shortened: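 Reporter cells were stably generated by retroviral transduction and puromycin selection, then seeded at 30,000 cells/well. Next day, cells received 1 μg/mL tunicamycin with 200 nM test compound for 7 h, and luciferase luminescence was read with a one-step reagent. Values reported as EC50.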

| SMILES | EC50 [µM] |
| --- | --- |
| O=C(COc1ccc(Cl)c(F)c1)NC12CC(NC(=O)C3CC(O)c4ccc(Cl)cc4O3)(C1)C2 (stereo not shown) [Compound 247, 7-chloro-N-{3-[2-(4-chloro-3-fluorophenoxy)acetamido]bicyclo[1.1.1]pentan-1-yl}-4-hydroxy-3,4-dihydro-2H-1-benzopyran-2-carboxamide] | < 0.01 |
| O=C(COc1ccc(Cl)c(F)c1)NC12CC(NC(=O)C3CC(=O)c4cc(F)c(F)cc4O3)(C1)C2 (stereo not shown) [Compound 248, N-{3-[2-(4-chloro-3-fluorophenoxy)acetamido]bicyclo[1.1.1]pentan-1-yl}-6,7-difluoro-4-oxo-3,4-dihydro-2H-1-benzopyran-2-carboxamide] | < 0.01 |
| O=C(COc1ccc(Cl)c(F)c1)NC12CC(NC(=O)[C@H]3C[C@@H](O)c4cc(F)c(F)cc4O3)(C1)C2 [Compound 252, (2R,4R)—N-{3-[2-(4-chloro-3-fluorophenoxy)acetamido]bicyclo[1.1.1]pentan-1-yl}-6,7-difluoro-4-hydroxy-3,4-dihydro-2H-1-benzopyran-2-carboxamide] | < 0.01 |
| O=C(COc1ccc(Cl)c(F)c1)NC12CC(NC(=O)[C@@H]3C[C@H](O)c4cc(F)c(F)cc4O3)(C1)C2 [Compound 253, (2S,4S)—N-{3-[2-(4-chloro-3-fluorophenoxy)acetamido]bicyclo[1.1.1]pentan-1-yl}-6,7-difluoro-4-hydroxy-3,4-dihydro-2H-1-benzopyran-2-carboxamide] | < 0.01 |
| Cc1ccc2c(c1)C(O)CC(C(=O)NC13CC(NC(=O)COc4ccc(Cl)c(F)c4)(C1)C3)O2 (stereo not shown) [Compound 254, N-{3-[2-(4-chloro-3-fluorophenoxy)acetamido]bicyclo[1.1.1]pentan-1-yl}-4-hydroxy-6-methyl-3,4-dihydro-2H-1-benzopyran-2-carboxamide] | < 0.01 |
| O=C(COc1ccc(Cl)c(F)c1)NC12CCC(NC(=O)[C@H]3CC(=O)c4cc(Cl)ccc4O3)(C1)C2 [Compound 255, (2R)-6-chloro-N-{4-[2-(4-chloro-3-fluorophenoxy)acetamido]bicyclo[2.1.1]hexan-1-yl}-4-oxo-3,4-dihydro-2H-1-benzopyran-2-carboxamide] | < 0.01 |
| O=C(COc1ccc(Cl)c(F)c1)NC12CCC(NC(=O)[C@H]3C[C@@H](O)c4cc(Cl)ccc4O3)(C1)C2 [Compound 256, (2R,4R)-6-chloro-N-{4-[2-(4-chloro-3-fluorophenoxy)acetamido]bicyclo[2.1.1]hexan-1-yl}-4-hydroxy-3,4-dihydro-2H-1-benzopyran-2-carboxamide] | < 0.01 |
| C[C@@]1(C(=O)NC23CC(NC(=O)COc4ccc(Cl)c(F)c4)(C2)C3)Cc2cc(Cl)ccc2O1 [Compound 257, (2S)-5-chloro-N-{3-[2-(4-chloro-3-fluorophenoxy)acetamido]bicyclo[1.1.1]pentan-1-yl}-2-methyl-2,3-dihydro-1-benzofuran-2-carboxamide] | > 2 |
| C[C@]1(C(=O)NC23CC(NC(=O)COc4ccc(Cl)c(F)c4)(C2)C3)Cc2cc(Cl)ccc2O1 [Compound 258, (2R)-5-chloro-N-{3-[2-(4-chloro-3-fluorophenoxy)acetamido]bicyclo[1.1.1]pentan-1-yl}-2-methyl-2,3-dihydro-1-benzofuran-2-carboxamide] | > 2 |
| C[C@]1(C(=O)NC23CC(NC(=O)COc4ccc(Cl)c(F)c4)(C2)C3)Oc2ccc(Cl)cc2C1=O [Compound 259, (2S)-5-chloro-N-{3-[2-(4-chloro-3-fluorophenoxy)acetamido]bicyclo[1.1.1]pentan-1-yl}-2-methyl-3-oxo-2,3-dihydro-1-benzofuran-2-carboxamide] | 0.5 to 2 |
| O=C(COc1ccc(Cl)c(F)c1)NC12CCC(NC(=O)[C@H]3C[C@H](O)c4cc(Cl)ccc4O3)(C1)C2 [Compound 260, (2R,4S)-6-chloro-N-{4-[2-(4-chloro-3-fluorophenoxy)acetamido]bicyclo[2.1.1]hexan-1-yl}-4-hydroxy-3,4-dihydro-2H-1-benzopyran-2-carboxamide] | < 0.01 |
| O=C(COc1ccc(Cl)c(F)c1)NC12CC(NC(=O)C3Cc4cc(Cl)ccc4N3)(C1)C2 (stereo not shown) [Compound 261, 5-chloro-N-{3-[2-(4-chloro-3-fluorophenoxy)acetamido]bicyclo[1.1.1]pentan-1-yl}-2,3-dihydro-1H-indole-2-carboxamide] | 0.05 to 0.25 |
| C[C@]1(C(=O)NC23CC(NC(=O)COc4ccc(Cl)c(F)c4)(C2)C3)Oc2ccc(Cl)cc2C1O (stereo partly drawn) [Compound 262, (2S)-5-chloro-N-{3-[2-(4-chloro-3-fluorophenoxy)acetamido]bicyclo[1.1.1]pentan-1-yl}-3-hydroxy-2-methyl-2,3-dihydro-1-benzofuran-2-carboxamide] | > 2 |
| C[C@@]1(C(=O)NC23CC(NC(=O)COc4ccc(Cl)c(F)c4)(C2)C3)Oc2ccc(Cl)cc2C1O (stereo partly drawn) [Compound 263, (2R)-5-chloro-N-{3-[2-(4-chloro-3-fluorophenoxy)acetamido]bicyclo[1.1.1]pentan-1-yl}-3-hydroxy-2-methyl-2,3-dihydro-1-benzofuran-2-carboxamide] | > 2 |
| O=C(COc1ccc(Cl)c(F)c1)NC12CC(NC(=O)[C@H]3C[C@@H](O)c4cc(Cl)c(F)cc4O3)(C1)C2 [Compound 264, (2R,4R)-6-chloro-N-{3-[2-(4-chloro-3-fluorophenoxy)acetamido]bicyclo[1.1.1]pentan-1-yl}-7-fluoro-4-hydroxy-3,4-dihydro-2H-1-benzopyran-2-carboxamide] | < 0.01 |
| CN1c2ccc(Cl)cc2CC1C(=O)NC12CC(NC(=O)COc3ccc(Cl)c(F)c3)(C1)C2 (stereo not shown) [Compound 266, 5-chloro-N-{3-[2-(4-chloro-3-fluorophenoxy)acetamido]bicyclo[1.1.1]pentan-1-yl}-1-methyl-2,3-dihydro-1H-indole-2-carboxamide] | 0.05 to 0.25 |
| O=C(COc1ccc(Cl)c(F)c1)NC12CC(NC(=O)[C@H]3C[C@@H](O)c4ccccc4O3)(C1)C2 [Compound 267, (2R,4R)—N-{3-[2-(4-chloro-3-fluorophenoxy)acetamido]bicyclo[1.1.1]pentan-1-yl}-4-hydroxy-3,4-dihydro-2H-1-benzopyran-2-carboxamide] | 0.01 to 0.05 |
| O=C(COc1ccc(Cl)c(F)c1)NC12CC(NC(=O)[C@H]3CC(=O)c4ccccc4O3)(C1)C2 [Compound 268, (2R)—N-{3-[2-(4-chloro-3-fluorophenoxy)acetamido]bicyclo[1.1.1]pentan-1-yl}-4-oxo-3,4-dihydro-2H-1-benzopyran-2-carboxamide] | 0.01 to 0.05 |
| O=C(COc1ccc(Cl)c(F)c1)NC12CC(NC(=O)[C@@H]3CC(=O)c4ccccc4O3)(C1)C2 [Compound 269, (2S)—N-{3-[2-(4-chloro-3-fluorophenoxy)acetamido]bicyclo[1.1.1]pentan-1-yl}-4-oxo-3,4-dihydro-2H-1-benzopyran-2-carboxamide] | 0.05 to 0.25 |
| O=C(COc1ccc(Cl)c(F)c1)NC12CC(NC(=O)[C@@H]3C[C@H](O)c4ccccc4O3)(C1)C2 [Compound 270, (2S,4S)—N-{3-[2-(4-chloro-3-fluorophenoxy)acetamido]bicyclo[1.1.1]pentan-1-yl}-4-hydroxy-3,4-dihydro-2H-1-benzopyran-2-carboxamide] | 0.05 to 0.25 |
| O=C(COc1ccc(F)c(F)c1)NC12CC(NC(=O)[C@H]3CC(=O)c4cc(F)c(F)cc4O3)(C1)C2 [Compound 271, (2R)—N-{3-[2-(3,4-difluorophenoxy)acetamido]bicyclo[1.1.1]pentan-1-yl}-6,7-difluoro-4-oxo-3,4-dihydro-2H-1-benzopyran-2-carboxamide] | 0.01 to 0.05 |
| O=C(COc1ccc(F)c(F)c1)NC12CC(NC(=O)[C@H]3C[C@@H](O)c4cc(F)c(F)cc4O3)(C1)C2 [Compound 272, (2R,4R)—N-{3-[2-(3,4-difluorophenoxy)acetamido]bicyclo[1.1.1]pentan-1-yl}-6,7-difluoro-4-hydroxy-3,4-dihydro-2H-1-benzopyran-2-carboxamide] | < 0.01 |
| O=C(COc1ccc(F)c(F)c1)NC12CC(NC(=O)[C@@H]3C[C@H](O)c4cc(F)c(F)cc4O3)(C1)C2 [Compound 273, (2S,4S)—N-{3-[2-(3,4-difluorophenoxy)acetamido]bicyclo[1.1.1]pentan-1-yl}-6,7-difluoro-4-hydroxy-3,4-dihydro-2H-1-benzopyran-2-carboxamide] | 0.01 to 0.05 |
| CCc1ncc(C(=O)NC23CCC(NC(=O)[C@H]4C[C@@H](O)c5cc(Cl)ccc5O4)(CC2)C[C@@H]3O)o1 [Compound 274, N-[(2S)-4-{[(2R,4R)-6-chloro-4-hydroxy-3,4-dihydro-2H-1-benzopyran-2-carbonyl]amino}-2-hydroxybicyclo[2.2.2]octan-1-yl]-2-ethyl-1,3-oxazole-5-carboxamide] | 0.05 to 0.25 |
| O=C(COc1ccc(F)c(F)c1)NC12CC(NC(=O)[C@H]3CC(=O)c4cc(Cl)ccc4O3)(C1)C2 [Compound 275, (2R)-6-chloro-N-{3-[2-(3,4-difluorophenoxy)acetamido]bicyclo[1.1.1]pentan-1-yl}-4-oxo-3,4-dihydro-2H-1-benzopyran-2-carboxamide] | < 0.01 |
| O=C(COc1ccc(F)c(F)c1)NC12CC(NC(=O)[C@@H]3CC(=O)c4cc(Cl)ccc4O3)(C1)C2 [Compound 276, (2S)-6-chloro-N-{3-[2-(3,4-difluorophenoxy)acetamido]bicyclo[1.1.1]pentan-1-yl}-4-oxo-3,4-dihydro-2H-1-benzopyran-2-carboxamide] | 0.01 to 0.05 |
| O=C(COc1ccc(F)c(F)c1)NC12CC(NC(=O)[C@H]3C[C@@H](O)c4cc(Cl)ccc4O3)(C1)C2 [Compound 277, (2R,4R)-6-chloro-N-{3-[2-(3,4-difluorophenoxy)acetamido]bicyclo[1.1.1]pentan-1-yl}-4-hydroxy-3,4-dihydro-2H-1-benzopyran-2-carboxamide] | < 0.01 |
| O=C(COc1ccc(F)c(F)c1)NC12CC(NC(=O)[C@@H]3C[C@H](O)c4cc(Cl)ccc4O3)(C1)C2 [Compound 278, (2S,4S)-6-chloro-N-{3-[2-(3,4-difluorophenoxy)acetamido]bicyclo[1.1.1]pentan-1-yl}-4-hydroxy-3,4-dihydro-2H-1-benzopyran-2-carboxamide] | 0.01 to 0.05 |
